Experiments:
[1] = test system: hind paw oedema (Mycobacterium butyricum); experiment: Adjuvant-paw oedema test; type: in vivo, Lewis rats (female); conditions: in Rattus norvegicus, 50% oedema inhibition, given immediately before and 24 hours after, paw diameter at 48 hours
Protocol: This test was carried out on female Lewis rats weighing 130-150 g. The oedema was caused by the subplantar injection of Mycobacterium butyricum in the right hind paw (0.5 mg of M. butyricum/0.1 ml of liquid paraffin). The D-homosteroids (suspended in 0.5% tragacanth/0.9% sodium chloride) were administered immediately before and 24 hours after the establishment of the oedema. The paw diameter was measured before and 48 hours after the establishment of the oedema. The ED50, namely the dosage which brings about a 50% oedema inhibition, was determined by means of a graph.

[2] = test system: experimentally hyperemiated skin; experiment: Vasoconstriction test; type: in vivo; conditions: concentration 0.1%, visual estimate, hyperemiated non-treated skin = 0, non-hyperemiated skin = 100; for Vasoconstriction, colour value, 4 hrs.: after 4 hours; for Vasoconstriction, colour value, 8 hrs.: after 8 hours
Protocol: J. Derm. 69, 11 (1957)]. In this test, the degree of the vasoconstriction in relation to the time was estimated visually (after 4 and 8 hours). The colour value of the hyperemiated non-treated skin was rated as 0 and the colour value of the non-hyperemiated skin was rated as 100. The D-homosteroids were used in concentration of 0.1%.

[3] = test system: thymus weight; experiment: Thymolysis test (thymus weight reduction); type: in vivo, rats (female); conditions: Rattus norvegicus, 120 h; 50% reduction in the thymus weight; rats of the Felt pellet test; oral on 4 successive days
Protocol: (§1) 2 felt pellets were implanted under the skin (scapula region) in female rats (90-110 g) under ether narcosis. The D-homosteroids were administered orally on 4 successive days commencing on the day of the implantation. On the fifth day the rats were killed, the granulomas which formed were removed, dried and weighed. The ED40, namely that dosage which gave a 40% reduction of the granulation weight, was determined. The thymus and kidney fresh weight as well as the weight-change were also determined.
Rats employed in the Felt pellet test were used for this test. The ED50, namely that dosage which gave a 50% reduction in the thymus weight, was determined.

[4] = test system: granulomas (felt pellets implanted under the skin); experiment: Felt pellet test (granulation weight reduction); type: in vivo, rats (female); conditions: Rattus norvegicus, 120 h; 40% reduction of the granulation weight; oral on 4 successive days
Protocol: as §1

Row | SMILES | ED50 [1] | Vasoconstriction, colour value, 4 hrs. [2] | Vasoconstriction, colour value, 8 hrs. [2] | ED50 [3] | ED40 [4]
1 | COC(=O)[C@@]1(OC(C)=O)CCC[C@H]2[C@@H]3CCC4=CC(=O)C=C[C@]4(C)[C@@]3(F)[C@@H](O)C[C@@]21C [17aα-acetoxy-9α-fluoro-11β-hydroxy-3-oxo-D-homoandrosta-1,4-diene-17aβ-carboxylic acid methyl ester] | 1.3 mg/kg | 63 | 77 | 0.9 mg/kg | 9 mg/kg
2 | COC(=O)[C@@]1(OC(C)=O)CCC[C@H]2[C@@H]3CCC4=CC(=O)C=C[C@]4(C)[C@H]3[C@@H](O)C[C@@]21C [17aα-acetoxy-11β-hydroxy-3-oxo-D-homoandrosta-1,4-diene-17aβ-carboxylic acid methyl ester] | 3.5 mg/kg | 70 | 77 | 0.65 mg/kg | 3 mg/kg
3 | COC(=O)[C@@]1(OC(C)=O)CCC[C@H]2[C@@H]3CCC4=CC(=O)CC[C@]4(C)[C@H]3[C@@H](O)C[C@@]21C [17aα-acetoxy-11β-hydroxy-3-oxo-D-homoandrost-4-ene-17aβ-carboxylic acid methyl ester] | – | 72 | 70 | – | –

Reference: patent publication US4029692A, “Steroid carboxylic acids and derivatives” (priority 1975, dated 1977)
